Source: patent US4731376A, “2-(-(2,2,5,5-tetramethyl-3-pyrrolin-3-carbonyl))-amino derivatives” (Alkaloida Vegyeszeti Gyar, priority 1983, dated 1988)

What was measured:
aconitin arrhythmia = aconitin arrhythmia model on rats (time to ventricular extrasystole, tachycardia, fibrillation; ED125, ED150); assay type: in vivo, Wistar rats; conditions: for ED125 / ED150: Rattus norvegicus, iv, 95% confidence limits on the next line; for ED125: infusion time to extrasystol 7.6 (control 6.1 minutes), read-out: ED125 (delay of chamber extrasystol); for ED150: infusion time to extrasystol 9.2 (control 6.1 minutes), read-out: ED150 (delay of chamber extrasystol); for time to chamber extrasystol, aconitin infusion / time to chamber tachycardia, aconitin infusion / time to fibrillation, aconitin infusion: 5 minutes before aconitin infusion, X ± S.E.M.
Procedure: Wistar rats (200-220 g) are narcotized with urethane. The vena jugularis is connected with a polyethylene catheter. Using standard EKG-II leads, a control EKG is taken. The test substance and the physiological saline solution used as control are intravenously administered 5 minutes before the aconitin infusion. The aconitin solution is continuous administered at a dose of 5 mg/kg at a rate of 0.1 ml (100 g/minute) as an infusion into the vena jugularis. The progress is monitored by the EKG isoelectric line.
During the test the time to formation of the ventricular extrasystole, ventricular tachycardia and fibrillation were determined.
On the basis of the late occurrence of the ventricula extrasystole, ED125 and ED150 values were determined.

mice = assay: acute toxicity on mice (LD50, Litchfield-Wilcoxon, after a week); assay type: in vivo; conditions: i.v., 95% confidence limits on the next line, 10080 min
Procedure: (§1) On the basis of the late occurrence of the ventricula extrasystole, ED125 and ED150 values were determined. The acute toxicities were determined on mice (CELP strain and the LD50 value was calculated after a week using the Litchfield-Wilcoxon method. The antiarrhythmically effective dosage or the LD50 value for several compounds of the various compound types are collected in Table III.

[1] = as above; assay type: in vivo; conditions: mouse, in vivo, iv, 95% confidence limits on the next line
Procedure: as §1

Structure (SMILES): CC1(C)C=C(C(=O)NC(c2ccccc2)c2ccccc2)C(C)(C)N1 [Compound 6]
- ED125 (aconitin arrhythmia): 5.4 mg/kg
- ED150 (aconitin arrhythmia): 23.1 mg/kg
- LD50 (acute toxicity) (mice): 63 mg/kg

Structure (SMILES): Cc1cccc(C)c1OCC(C)NC(=O)C1=CC(C)(C)NC1(C)C (stereo not shown) [Compound 9, 2-[N(2,2,5,5-tetramethyl-2,5-dihydro-3-pyrroline-3-carbonyl)]-3-(2,6-dimethyl-phenoxy)-aminopropane]
- time to chamber extrasystol, aconitin infusion (aconitin arrhythmia; 0.5 mg/kg i.v.): 7.2 ± 0.06 min
- time to chamber tachycardia, aconitin infusion (aconitin arrhythmia; 0.5 mg/kg i.v.): 11.1 ± 0.68 min
- time to fibrillation, aconitin infusion (aconitin arrhythmia; 0.5 mg/kg i.v.): 14.6 ± 0.48 min
- time to chamber extrasystol, aconitin infusion (aconitin arrhythmia; 1.0 mg/kg i.v.): 9.2 ± 0.10 min
- time to chamber tachycardia, aconitin infusion (aconitin arrhythmia; 1.0 mg/kg i.v.): 15.3 ± 0.29 min
- time to fibrillation, aconitin infusion (aconitin arrhythmia; 1.0 mg/kg i.v.): 20.9 ± 0.50 min
- time to chamber extrasystol, aconitin infusion (aconitin arrhythmia; 2.0 mg/kg i.v.): 13.2 ± 1.21 min
- time to chamber tachycardia, aconitin infusion (aconitin arrhythmia; 2.0 mg/kg i.v.): 18.9 ± 0.13 min
- time to fibrillation, aconitin infusion (aconitin arrhythmia; 2.0 mg/kg i.v.): 24.6 ± 0.79 min
- ED125 (aconitin arrhythmia): 0.6 mg/kg
- ED150 (aconitin arrhythmia): 0.9 mg/kg
- LD50 (acute toxicity) (mice): 11 mg/kg

Structure (SMILES): Cc1cccc(C)c1OCC(C)NC(=O)C1CC(C)(C)NC1(C)C (stereo not shown) [Compound 11, 2-[N-(2,2,5,5-tetramethyl-3-pyrrolidine-3-carbonyl)]-3-(2,6-dimethyl-phenoxy)-amino propane]
- time to chamber extrasystol, aconitin infusion (aconitin arrhythmia; 0.25 mg/kg i.v.): 7.6 ± 0.24 min
- time to chamber tachycardia, aconitin infusion (aconitin arrhythmia; 0.25 mg/kg i.v.): 11.3 ± 0.88 min
- time to fibrillation, aconitin infusion (aconitin arrhythmia; 0.25 mg/kg i.v.): 15.9 ± 0.49 min
- time to chamber extrasystol, aconitin infusion (aconitin arrhythmia; 0.5 mg/kg i.v.): 9.9 ± 0.40 min
- time to chamber tachycardia, aconitin infusion (aconitin arrhythmia; 0.5 mg/kg i.v.): 15.3 ± 0.52 min
- time to fibrillation, aconitin infusion (aconitin arrhythmia; 0.5 mg/kg i.v.): 19.1 ± 0.89 min
- time to chamber extrasystol, aconitin infusion (aconitin arrhythmia; 1.0 mg/kg i.v.): 13.2 ± 1.29 min
- time to chamber tachycardia, aconitin infusion (aconitin arrhythmia; 1.0 mg/kg i.v.): 19.3 ± 1.24 min
- time to fibrillation, aconitin infusion (aconitin arrhythmia; 1.0 mg/kg i.v.): 23.5 ± 0.42 min
- ED125 (aconitin arrhythmia): 0.26 mg/kg
- ED150 (aconitin arrhythmia): 0.39 mg/kg
- LD50 at 168 h [1]: 1.96 mg/kg

Structure (SMILES): Cc1cccc(C)c1NC(=O)CNC(=O)C1=CC(C)(C)NC1(C)C [Compound 19]
- time to chamber extrasystol, aconitin infusion (aconitin arrhythmia; 1.0 mg/kg i.v.): 6.6 min
- time to chamber tachycardia, aconitin infusion (aconitin arrhythmia; 1.0 mg/kg i.v.): 10.4 ± 2.58 min
- time to fibrillation, aconitin infusion (aconitin arrhythmia; 1.0 mg/kg i.v.): 15.1 ± 0.70 min
- time to chamber extrasystol, aconitin infusion (aconitin arrhythmia; 4.0 mg/kg i.v.): 9.8 ± 0.34 min
- time to chamber tachycardia, aconitin infusion (aconitin arrhythmia; 4.0 mg/kg i.v.): 16.1 ± 2.62 min
- time to fibrillation, aconitin infusion (aconitin arrhythmia; 4.0 mg/kg i.v.): 17.4 ± 1.22 min
- time to chamber extrasystol, aconitin infusion (aconitin arrhythmia; 8.0 mg/kg i.v.): 13.8 ± 0.35 min
- time to chamber tachycardia, aconitin infusion (aconitin arrhythmia; 8.0 mg/kg i.v.): 27.0 ± 1.10 min
- time to fibrillation, aconitin infusion (aconitin arrhythmia; 8.0 mg/kg i.v.): 30.6 ± 1.72 min
- ED125 (aconitin arrhythmia): 1.53 mg/kg
- ED150 (aconitin arrhythmia): 2.44 mg/kg
- LD50 (acute toxicity) (mice): 53 mg/kg

Structure (SMILES): Cc1cccc(C)c1NC(=O)C(C)NC(=O)C1=CC(C)(C)NC1(C)C (stereo not shown) [Compound 20]
- time to chamber extrasystol, aconitin infusion (aconitin arrhythmia; 1.0 mg/kg i.v.): 7.1 ± 0.49 min
- time to chamber tachycardia, aconitin infusion (aconitin arrhythmia; 1.0 mg/kg i.v.): 12.3 ± 0.42 min
- time to fibrillation, aconitin infusion (aconitin arrhythmia; 1.0 mg/kg i.v.): 15.5 ± 0.59 min
- time to chamber extrasystol, aconitin infusion (aconitin arrhythmia; 2.0 mg/kg i.v.): 9.2 ± 0.65 min
- time to chamber tachycardia, aconitin infusion (aconitin arrhythmia; 2.0 mg/kg i.v.): 15.1 ± 0.22 min
- time to fibrillation, aconitin infusion (aconitin arrhythmia; 2.0 mg/kg i.v.): 19.5 ± 0.54 min
- time to chamber extrasystol, aconitin infusion (aconitin arrhythmia; 4.0 mg/kg i.v.): 11.7 ± 0.50 min
- time to chamber tachycardia, aconitin infusion (aconitin arrhythmia; 4.0 mg/kg i.v.): 18.4 ± 0.75 min
- time to fibrillation, aconitin infusion (aconitin arrhythmia; 4.0 mg/kg i.v.): 23.5 ± 1.63 min
- ED125 (aconitin arrhythmia): 1.21 mg/kg
- ED150 (aconitin arrhythmia): 1.91 mg/kg
- LD50 (acute toxicity) (mice): 15 mg/kg

Structure (SMILES): C=CC1CN2CCC1CC2C(O)c1ccnc2ccc(OC)cc12 (stereo not shown) [chinidin, reference compound]
- time to chamber extrasystol, aconitin infusion (aconitin arrhythmia; 5.0 mg/kg i.v.): 6.9 ± 0.06 min
- time to chamber tachycardia, aconitin infusion (aconitin arrhythmia; 5.0 mg/kg i.v.): 10.4 ± 0.45 min
- time to fibrillation, aconitin infusion (aconitin arrhythmia; 5.0 mg/kg i.v.): 13.7 ± 0.44 min
- time to chamber extrasystol, aconitin infusion (aconitin arrhythmia; 10.0 mg/kg i.v.): 8.4 ± 0.42 min
- time to chamber tachycardia, aconitin infusion (aconitin arrhythmia; 20.0 mg/kg i.v.): 15.7 ± 0.48 min
- time to fibrillation, aconitin infusion (aconitin arrhythmia; 20.0 mg/kg i.v.): 18.1 ± 0.22 min
- ED125 (aconitin arrhythmia): 6.75 mg/kg
